Several values for one entry are separate records, joined by “and”; a condition that tells them apart may be missing. Equal entries are not always repeated.
Test system: HL60 (human promyelocytic leukemia) cells
Experiment: LMA-FlexMAP bead-based gene expression signature analysis of total RNA from HL60 cells treated with tretinoin or DMSO (ninety transcripts); for FlexMap GAPDH M LUA#94: test concentration or dose not given here; for FlexMap NM 000147 LUA#29: test concentration or dose not given here; for FlexMap NM 001948 LUA#84: test concentration or dose not given here
[1] = Experiment 2, Tretinoin, replicate columns

With CC1=C(/C=C/C(C)=C/C=C/C(C)=C/C(=O)O)C(C)(C)CCC1 [tretinoin, all-trans-retinoic acid] the “NM_005952 LUA#66 FlexMAP signal” value (Experiment 1, tretinoin-treated HL60, transcript NM_005952, replicate columns) was 172 and 212 and 149 and 198.5 and 72.5 and 189 and 203 and 95.5 and 188.5 and 182, the “NM_005980 LUA#73 FlexMAP signal” value (Experiment 1, tretinoin-treated HL60, transcript NM_005980, replicate columns) was 145 and 173 and 163 (2×) and 57 and 142 and 74 and 149.5 and 151 and the “NM_006019 LUA#35 FlexMAP signal” value (Experiment 1, tretinoin-treated HL60, transcript NM_006019, replicate columns) was 746 and 867 and 569 and 818 and 186 and 828 and 762 and 287 and 767 and 734.5. The “NM_006138 LUA#56 FlexMAP signal” value (Experiment 1, tretinoin-treated HL60, transcript NM_006138, replicate columns) was 114 and 130 and 93 and 124 and 51.5 and 113.5 and 115.5 and 66 and 122 and 114.5, the “NM_006432 LUA#27 FlexMAP signal” value (Experiment 1, tretinoin-treated HL60, transcript NM_006432, replicate columns) was 1294.5 and 1495 and 1081.5 and 1409.5 and 397 and 1446 and 1405 and 625 and 1345 and 1203 and the “NM_006452 LUA#71 FlexMAP signal” value (Experiment 1, tretinoin-treated HL60, transcript NM_006452, replicate columns) was 78.5 and 76 and 67.5 and 79.5 and 41 and 75 and 68 and 53.5 and 82 and 74. The “NM_006985 LUA#58 FlexMAP signal” value (Experiment 1, tretinoin-treated HL60, transcript NM_006985, replicate columns) was 52 and 54 and 47 and 59 and 37 and 55 and 56 and 40 and 57 and 51, the “NM_007282 LUA#16 FlexMAP signal” value (Experiment 1, tretinoin-treated HL60, transcript NM_007282, replicate columns) was 60.5 and 60 and 39 and 64.5 (2×) and 42.5 and 64 and 62 and 56 and 61 and the “NM_014333 LUA#26 FlexMAP signal” value (Experiment 1, tretinoin-treated HL60, transcript NM_014333, replicate columns) was 472 and 584 and 366.5 and 531 and 134 and 492 and 530 and 197.5 and 497 and 459.5. The “NM_014366 LUA#61 FlexMAP signal” value (Experiment 1, tretinoin-treated HL60, transcript NM_014366, replicate columns) was 213 and 263 and 163 and 235 (2×) and 66 and 231 (2×) and 97 and 209.5, the “NM_014573 LUA#70 FlexMAP signal” value (Experiment 1, tretinoin-treated HL60, transcript NM_014573, replicate columns) was 135 and 155 (2×) and 99 and 153.5 and 61 and 138 and 79 and 138.5 and 144.5 and the “NM_015201 LUA#57 FlexMAP signal” value (Experiment 1, tretinoin-treated HL60, transcript NM_015201, replicate columns) was 181 and 226.5 and 139 and 222 and 64 and 208 and 203 and 87 and 194.5 and 183. For the same compound, the “NM_018115 LUA#63 FlexMAP signal” value (Experiment 1, tretinoin-treated HL60, transcript NM_018115, replicate columns) was 506.5 and 644 and 552.5 and 735.5 and 143 and 690 and 601 and 227.5 and 582 and 418, the “NM_018164 LUA#69 FlexMAP signal” value (Experiment 1, tretinoin-treated HL60, transcript NM_018164, replicate columns) was 140.5 and 177 and 131 and 165 and 57 and 152.5 and 155 and 75 and 143 and 142 and the “NM_018256 LUA#83 FlexMAP signal” value (Experiment 1, tretinoin-treated HL60, transcript NM_018256, replicate columns) was 1557 and 747 and 897 and 726 and 388 and 903 and 998 and 589 and 1256.5 and 1208. For the same compound, the “NM_018890 LUA#33 FlexMAP signal” value (Experiment 1, tretinoin-treated HL60, transcript NM_018890, replicate columns) was 705 and 824 and 537.5 and 758 and 187.5 and 788 and 743.5 and 293.5 and 719 and 712, the “NM_019058 LUA#75 FlexMAP signal” value (Experiment 1, tretinoin-treated HL60, transcript NM_019058, replicate columns) was 143.5 and 158 (2×) and 143 and 164 and 59 and 152 and 79.5 and 148.5 and 129 and the “NM_020117 LUA#78 FlexMAP signal” value (Experiment 1, tretinoin-treated HL60, transcript NM_020117, replicate columns) was 527 and 607 and 408 and 584.5 and 145 and 554 and 564 and 230 and 529.5 and 519. The “NM_021103 LUA#41 FlexMAP signal” value (Experiment 1, tretinoin-treated HL60, transcript NM_021103, replicate columns) was 2412 and 2719 and 2257.5 and 2689 and 925 and 2668.5 and 2611 and 1370 and 2590 and 2454, the “NM_021203 LUA#80 FlexMAP signal” value (Experiment 1, tretinoin-treated HL60, transcript NM_021203, replicate columns) was 547 and 654 and 442.5 and 642.5 and 151 and 578.5 and 611 and 228.5 and 563 and 546 and the “NM_021974 LUA#64 FlexMAP signal” value (Experiment 1, tretinoin-treated HL60, transcript NM_021974, replicate columns) was 1003 and 1158 and 872 and 1105 and 293.5 and 1102.5 and 1052.5 and 477.5 and 1068 and 955. For the same compound, the “NM_024045 LUA#65 FlexMAP signal” value (Experiment 1, tretinoin-treated HL60, transcript NM_024045, replicate columns) was 124 and 146 and 100 and 145 and 52 and 141 and 142 and 69 and 133 and 119, the “TFRC LUA#92 FlexMAP signal” value (Experiment 1, tretinoin-treated HL60, transcript TFRC, replicate columns) was 250 and 305 and 191.5 and 285 and 81.5 and 280.5 and 289 and 109 and 272 and 251.5 and the “FlexMap ACTB LUA#91” value [1] was 2807 and 2986 and 107 and 2939 and 1020 and 2820 and 2870 and 2791 and 2727 and 2873.5. The “FlexMap GAPDH_3 LUA#95” value [1] was 3075 and 2896 and 139.5 and 2850 and 1137 and 3025 and 3066 and 2936 and 2973 and 3162.5, the “FlexMap GAPDH_5 LUA#93” value [1] was 1888 and 1977.5 and 72 and 1965.5 and 509 and 1847 and 2001 and 1834.5 and 1691 and 1994 and the “FlexMap GAPDH_M LUA#94” value [1] was 1814 and 1595.5 and 73 and 1871 and 514 and 1911 and 2010.5 and 1693.5 and 1762.5 and 1932.5. For the same compound, the “FlexMap NM_000147 LUA#29” value [1] was 1102 and 1135 and 36 and 1106 and 236 and 1132 and 1122.5 and 1051 and 1086 and 1171, the “FlexMap NM_000211 LUA#39” value [1] was 1639.5 and 1219 and 89 and 1828 and 470 and 1717 and 1734.5 and 1593.5 and 1570 and 1763 and the “FlexMap NM_000250 LUA#87” value [1] was 236 and 228 and 39 and 249 and 70 and 246 and 243 and 232 and 239.5 and 253. The “FlexMap NM_000414 LUA#22” value [1] was 564.5 and 544 and 34 and 547 and 115.5 and 596 and 561.5 and 550.5 and 543 and 598.5, the “FlexMap NM_000433 LUA#28” value [1] was 786.5 and 574 and 34 and 810 and 158 and 860 and 842 and 753 and 724 and 823 and the “FlexMap NM_000584 LUA#30” value [1] was 2339.5 and 2517.5 and 72 and 2315 and 665 and 2389 and 2341.5 and 2247 and 2269 and 2450. The “FlexMap NM_000884 LUA#81” value [1] was 963.5 and 841 and 61 and 951 and 259.5 and 1004 and 988 and 925 and 916 and 1010, the “FlexMap NM_001034 LUA#67” value [1] was 260 and 246 and 32.5 and 280 and 65 and 281 and 253 and 271 and 252 and 276 and the “FlexMap NM_001101 LUA#34” value [1] was 3017 and 2733 and 211 and 3046 and 1578 and 3029 and 3195 and 2934 and 2997 and 3139.5. The “FlexMap NM_001469 LUA#79” value [1] was 1315 and 1107 and 73 and 1230 and 333.5 and 1437 and 1331.5 and 1308 and 1281.5 and 1360, the “FlexMap NM_001498 LUA#18” value [1] was 494.5 and 511 and 32 and 521 and 110.5 and 507.5 and 513 and 441.5 and 467 and 531.5 and the “FlexMap NM_001684 LUA#23” value [1] was 71 and 75 and 30 and 98 and 38.5 and 66 and 79 and 68 and 77.5 and 83. For the same compound, the “FlexMap NM_001948 LUA#84” value [1] was 72 and 70 and 33 and 79.5 and 40 and 68 (2×) and 70.5 and 62 and 81, the “FlexMap NM_002166 LUA#25” value [1] was 227 and 254.5 and 30 and 237 and 60 and 230 and 240 and 221 and 242 and the “FlexMap NM_002467 LUA#90” value [1] was 741 and 823 (2×) and 762.5 and 205 and 792 and 798 and 776 and 759. The “FlexMap NM_002468 LUA#40” value [1] was 531.5 and 584 and 35 and 511 and 135 and 556.5 and 549 and 498 and 494 and 589.5, the “FlexMap NM_002539 LUA#74” value [1] was 416 and 397 and 33 and 437 and 89 and 423 and 409 and 392 and 368 and 441 and the “FlexMap NM_002624 LUA#36” value [1] was 1647.5 and 1643 and 71 and 1714 and 670 and 1664 and 1757 and 1580.5 and 1616 and 1772.5. The “FlexMap NM_002664 LUA#38” value [1] was 2701.5 and 2723 and 91 and 2815 and 1002 and 2840.5 and 2805 and 2642 and 2652 and 2875, the “FlexMap NM_002970 LUA#42” value [1] was 1716.5 and 1563 and 42 and 1624 and 435.5 and 1759.5 and 1743 and 1655.5 and 1575 and 1823 and the “FlexMap NM_002982 LUA#45” value [1] was 3697 and 3859 and 294 and 3328 and 2094 and 3522 and 3632 and 3562 and 3485 and 3768.

— patent US20110015080A1, “Solution-based methods for RNA expression profiling” (MASSACHUSETTS INSTITUTE OF TECHNOLOGY, priority 2005, published 2011)
